How the values were obtained:
SK-BR-3 cells = settings: treated 1 hour, counted after 3 days, doxorubicin concentration
Procedure: (A) SK-BR-3 cells. […] Cells in culture were treated for 1 hour with: conventional immunoliposomes (triangles); sterically stabilized (2 mole % PEG-PE) immunoliposomes (closed circles); control (irrelevant antibody) sterically stabilized (2 mole % PEG-PE) immunoliposomes (open circles); or free doxorubicin alone (closed squares). Immunoliposomes contained 60-70 μg antibody/μmol phospholipid and 55-80 μg doxorubicin/μmol phospholipid; antibody/doxorubicin ratio was 0.8-1.2. Cells were counted 3 days after treatment as described in Methods.
To test the cytotoxicity of doxorubicin-loaded immunoliposomes, SK-BR-3 or WI-38 cells in monolayer culture were incubated with free doxorubicin or doxorubicin-loaded immunoliposomes for 1 hour, and then washed extensively with media. The cells were then further incubated at 37° C. for 3 days, after which cell number was estimated by crystal violet staining as described above.

WI-38 cells = experiment: cytotoxicity of doxorubicin-loaded immunoliposomes, WI-38 cells; assay type: cell-based; settings: minimal p185^HER2

Compound: COc1cccc2c1C(=O)c1c(O)c3c(c(O)c1C2=O)C[C@@](O)(C(=O)CO)C[C@@H]3O[C@H]1C[C@H](N)[C@H](O)[C@H](C)O1 [doxorubicin]
- IC50 cytotoxicity (SK-BR-3 cells): approximately 0.3 μg/ml
- cytotoxicity against WI-38 cells (WI-38 cells): significant dose-dependent cytotoxicity

Reference: US7507407B2, “Immunoliposomes that optimize internationalization into target cells” (The Regents of the University of California, priority 1994, dated 2009)
